Residue numbers refer to the chain shown, from its start.
What was measured:
PPO2 R128H ΔG210 = target: T1, PPO2 R128H ΔG210 (Amaranthus tuberculatus, UniProt Q0NZW9, DEL210/R128H); experiment: biochemical; assay type: biochemical
T1 sequence (Q0NZW9 with tags, fused parts or gaps R128H/DEL210): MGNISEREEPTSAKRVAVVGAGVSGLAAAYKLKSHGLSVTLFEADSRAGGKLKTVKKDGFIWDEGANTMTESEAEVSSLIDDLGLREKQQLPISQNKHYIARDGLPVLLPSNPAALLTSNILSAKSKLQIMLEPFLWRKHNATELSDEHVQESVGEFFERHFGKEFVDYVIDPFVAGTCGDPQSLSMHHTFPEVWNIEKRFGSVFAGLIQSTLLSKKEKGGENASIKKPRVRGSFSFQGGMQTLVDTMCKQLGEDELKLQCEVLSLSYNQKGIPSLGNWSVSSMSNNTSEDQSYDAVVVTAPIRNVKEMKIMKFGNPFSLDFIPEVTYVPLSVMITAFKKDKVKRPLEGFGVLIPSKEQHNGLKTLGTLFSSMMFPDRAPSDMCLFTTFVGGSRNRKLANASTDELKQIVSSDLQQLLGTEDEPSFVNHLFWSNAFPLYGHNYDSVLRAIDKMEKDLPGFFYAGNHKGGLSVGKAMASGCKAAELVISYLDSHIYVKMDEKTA

PPO2 R128C ΔG210 = target: T2, PPO2 R128C ΔG210 (Amaranthus tuberculatus, UniProt Q0NZW9, DEL210/R128C); experiment: biochemical; assay type: biochemical
T2 sequence (Q0NZW9 with tags, fused parts or gaps R128C/DEL210): T1 sequence (Q0NZW9 with tags, fused parts or gaps R128H/DEL210) with H98C

PPO2 R128Q ΔG210 = target: T3, PPO2 R128Q ΔG210 (Amaranthus tuberculatus, UniProt Q0NZW9, DEL210-210/R128Q); experiment: biochemical; assay type: biochemical
T3 sequence (Q0NZW9 with tags, fused parts or gaps R128Q/DEL210-210): T1 sequence (Q0NZW9 with tags, fused parts or gaps R128H/DEL210) with H98Q

[1] = target: T4, PPO2 R128I ΔG210 in Escherichia coli hemG (Amaranthus tuberculatus, UniProt Q0NZW9, DEL210-210/R128I, cells depend on it); assay type: cell-based; conditions: read-out: IC50 (E. coli hemG growth)
T4 sequence (Q0NZW9 with tags, fused parts or gaps R128I/DEL210-210): T1 sequence (Q0NZW9 with tags, fused parts or gaps R128H/DEL210) with H98I

[2] = target: T5, PPO2 R128A ΔG210 in Escherichia coli hemG (Amaranthus tuberculatus, UniProt Q0NZW9, DEL210/R128A, cells depend on it); assay type: cell-based; conditions: read-out: IC50 (E. coli hemG growth)
T5 sequence (Q0NZW9 with tags, fused parts or gaps R128A/DEL210): T1 sequence (Q0NZW9 with tags, fused parts or gaps R128H/DEL210) with H98A

Compound	IC50 (PPO2 R128H ΔG210) [nM]	IC50 (PPO2 R128C ΔG210) [nM]	IC50 (PPO2 R128Q ΔG210) [nM]	IC50 [1] [nM]	IC50 [2] [nM]	Resistance factor (PPO2 R128H ΔG210)	Resistance factor (PPO2 R128C ΔG210)	Resistance factor (PPO2 R128Q ΔG210)
CS(=O)(=O)NC(=O)c1cc(Oc2ccc(C(F)(F)F)cc2Cl)ccc1[N+](=O)[O-] [Fomesafen, fomesafen]	> 10000	> 10000	> 10000					
CCOC(=O)C(C)OC(=O)c1cc(Oc2ccc(C(F)(F)F)cc2Cl)ccc1[N+](=O)[O-] (stereo not drawn) [Lactofen, lactofen]	1590	2150	1750	> 10000	> 10000			
CC(C)N(C)S(=O)(=O)NC(=O)c1cc(-n2c(=O)cc(C(F)(F)F)n(C)c2=O)c(F)cc1Cl [Saflufenacil, saflufenacil]	> 10000	> 10000	> 10000	> 10000	> 10000			
C#CCN1C(=O)C(F)(F)Oc2cc(F)c(-n3c(=O)n(C)c(=S)n(C)c3=O)cc21 [Trifludimoxazin, trifludimoxazin]	30.2	31.1	14.5	82.9	46.5	123	127	59
